From patent US8802664B2 (Bioproject, priority 2010, dated 2014) come the findings set out here.

Molecules are shown by their SMILES. Counter-ions that a name gives are not always drawn.

As usually defined, the melting point is the temperature of the solid-liquid transition. Compound `CN1CCC(OC(c2cccc(OCCN3CCN(C(=O)OC(C)(C)C)CC3)c2)c2nc3ccccc3s2)CC1` (stereo not shown) (as salt: oxalate) [Example 329, 4-(2-{3-[benzothiazol-2-yl(1-methylpiperidin-4-yloxy)methyl]phenoxy}ethyl)piperazine-1-carboxylic acid tert-butyl ester] showed a melting point of 90 °C.

Compound `CN1CCC(OC(c2cccc(N3CCCC3CN)c2)c2nc3ccccc3s2)CC1` (stereo not shown) (as salt: oxalate) [Example 482] showed a melting point of 145 °C.

In turn, `CN1CCC(OC(c2cccc(OCCCCO)c2)c2nc3ccccc3s2)CC1` (stereo not shown) (as salt: oxalate) [Example 266, 4-{3-[benzothiazol-2-yl(1-methylpiperidin-4-yloxy)methyl]phenoxy}butan-1-ol] returned a melting point of 63 °C.

Consider `CC(=O)c1cccc(-c2cccc(C(OC3CCN(C)CC3)c3nc4ccccc4[nH]3)c2)c1` (stereo not shown) (as salt: oxalate) [Example 110, 1-{3′-[(1H-benzimidazol-2-yl)(1-methylpiperidin-4-yloxy)methyl]biphenyl-3-yl}ethanone], for which the melting point stood at 140 °C.

As to `CN1CCC(OC(c2cccc(OC3CCNCC3)c2)c2nc3ccccc3s2)CC1` (stereo not shown) (as salt: oxalate) [Example 415, 2-{(1-methylpiperidin-4-yloxy)[3-(piperidin-4-yloxy)phenyl]methyl}benzothiazole], the melting point came to 76 °C.

Turning to `CN1CCC(OC(c2cccc(N3CCC(CO)C3)c2)c2nc3ccccc3s2)CC1` (stereo not shown) (as salt: oxalate) [Example 404, (1-{3-[benzothiazol-2-yl(1-methylpiperidin-4-yloxy)methyl]phenyl}pyrrolidin-3-yl)methanol], the melting point came out at 106 °C.

`CN1CCC(OC(c2cccc(OCCCCCNCCCCN)c2)c2nc3ccccc3[nH]2)CC1` (stereo not shown) (as salt: oxalate) [Example 419, N1-(5-{3-[(1H-benzimidazol-2-yl)(1-methylpiperidin-4-yloxy)methyl]phenoxy}pentyl)butane-1,4-diamine] came in with a melting point of 162 °C.

Regarding `CN1CCC(NC(c2cccc(SCc3ccccc3)c2)c2nc3ccccc3s2)CC1` (stereo not shown) (as salt: oxalate) [Example 107, [benzothiazol-2-yl(3-benzylsulfanylphenyl)methyl](1-methylpiperidin-4-yl)amine], the melting point came out at 50 °C.

As to `CCCCCCc1cccc(C(NC2CCN(C)CC2)c2nc3ccccc3[nH]2)c1` (stereo not shown) (as salt: oxalate) [Example 76, [(1H-benzimidazol-2-yl)(3-hexylphenyl)methyl](1-methylpiperidin-4-yl)amine], the melting point stood at 115 °C.

As to `CC(C)Oc1cccc(C(NC2CCN(C)CC2)c2nc3ccccc3s2)c1` (stereo not shown) (as salt: oxalate) [Example 88, [benzothiazol-2-yl(3-isopropoxyphenyl)methyl](1-methylpiperidin-4-yl)amine], the melting point came to 96 °C.

For the compound `COc1cccc(C(OC2CCN(C)CC2)c2nc3ccccc3s2)c1` (stereo not shown) (as salt: hydrochloride) [Example 11, 2-[(3-methoxyphenyl)(1-methylpiperidin-4-yloxy)methyl]benzothiazole], the melting point turned out to be 182 °C.

In turn, `Cc1cc(F)cc(C(OC2CCN(C)CC2)c2nc3ccccc3s2)c1` (stereo not shown) (as salt: oxalate) [Example 38, 2-[(3-fluoro-5-methylphenyl)(1-methylpiperidin-4-yloxy)methyl]benzothiazole] displayed a melting point of 170 °C.

Turning to `CN1CCC(OC(c2cccc(-c3cccc(F)c3)c2)c2nc3ccccc3[nH]2)CC1` (stereo not shown) (as salt: oxalate) [Example 109, 2-[(3′-fluoro-biphenyl-3-yl)(1-methylpiperidin-4-yloxy)methyl]-1H-benzimidazole], the melting point was 120 °C.

Compound `CN1CCC(COC(c2cccc(Br)c2)c2nc3cc(F)ccc3[nH]2)C1` (stereo not shown) (as salt: oxalate) [Example 449, 2-[(3-bromophenyl)(1-methylpyrrolidin-3-ylmethoxy)methyl]-5-fluoro-1H-benzimidazole] registered a melting point of 70 °C.

`CN1CCC(OC(c2cccc(OCC3CCCCC3)c2)c2nc3ccccc3s2)CC1` (stereo not shown) (as salt: oxalate) [Example 285, 2-[(3-Cyclohexylmethoxyphenyl)(1-methylpiperidin-4-yloxy)methyl]benzothiazole] came in with a melting point of 101 °C.

As for `CN1CCC(OC(c2ccccc2)c2nc3ccccc3s2)C1` (stereo not shown) (as salt: oxalate) [Example 2, 2-[(1-methylpyrrolidin-3-yloxy)phenyl-methyl]benzothiazole], the melting point amounted to 120 °C.

As for `CCOC(=O)n1c(C(OC2CCN(C)CC2)c2cc(OC(F)(F)F)ccc2F)nc2ccccc21` (stereo not shown) (as salt: oxalate) [Example 553], the melting point was found to be 118 °C.

On to `Cc1cc(F)c(C(OC2CCN(C)CC2)c2nc3ccccc3s2)c(F)c1` (stereo not shown) (as salt: oxalate) [Example 531], for which the melting point was found to be 125 °C.

For `CN1CCC(NC(c2cccc(F)c2)c2nc3ccccc3[nH]2)CC1` (stereo not shown) (as salt: oxalate) [Example 74, [(1H-benzimidazol-2-yl)(3-fluorophenyl)methyl](1-methylpiperidin-4-yl)amine], the melting point was determined as 155 °C.

As for `CN1CCC(OC(c2cccc(N3CCC(O)C3)c2)c2nc3ccccc3s2)CC1` (stereo not shown) (as salt: oxalate) [Example 406, 1-{3-[benzothiazol-2-yl(1-methylpiperidin-4-yloxy)methyl]phenyl}pyrrolidin-3-ol], the melting point came to 103 °C.

For the compound `CN1CCC(OC(c2cccc(OC3CCNC3)c2)c2nc3ccccc3s2)CC1` (stereo not shown) (as salt: oxalate) [Example 382, 2-{(1-methylpiperidin-4-yloxy)[3-(pyrrolidin-3-yloxy)phenyl]methyl}benzothiazole], the melting point came out at 50 °C.

As for `CN1CCC(NC(c2cccc(I)c2)c2nc3ccccc3s2)CC1` (stereo not shown) (as salt: oxalate) [Example 48, [benzothiazol-2-yl(3-iodophenyl)methyl](1-methylpiperidin-4-yl)amine], the melting point fell in the range of 188 to 195 °C.

As for `CN1CCC(OC(c2ccc3c(c2)OCCO3)c2nc3ccccc3s2)CC1` (stereo not shown) (as salt: hydrochloride) [Example 10, 2-[(2,3-dihydrobenzo[1,4]dioxin-6-yl)(1-methylpiperidin-4-yloxy)methyl]benzothiazole], the melting point stood at 71 °C.

`CN1CCC(OC(c2cccc(C#N)c2)c2nc3ccccc3s2)CC1` (stereo not shown) (as salt: oxalate) [Example 197, 3-[benzothiazol-2-yl(1-methylpiperidin-4-yloxy)methyl]benzonitrile]: the melting point is 75 °C.

Compound `CCCCOc1cccc(C(NC2CCN(C)CC2)c2nc3ccccc3[nH]2)c1` (stereo not shown) (as salt: oxalate) [Example 69, [(1H-benzimidazol-2-yl)(3-butoxyphenyl)methyl](1-methylpiperidin-4-yl)amine] yielded a melting point of 137 °C.

`Cc1cc(C(NC2CCN(C)CC2)c2nc3ccccc3s2)ccc1F` (stereo not shown) (as salt: oxalate) [Example 35, [benzothiazol-2-yl(4-fluoro-3-methyl-phenyl)methyl](1-methylpiperidin-4-yl)amine] showed a melting point of 160 °C.

In turn, `CN1CCC(OC(c2cccc(N3CC4CC(N)CC4C3)c2)c2nc3ccccc3s2)CC1` (stereo not shown) (as salt: oxalate) [Example 471] came in with a melting point of 126 °C.

`CN1CCC(OC(c2cccc(-n3cccn3)c2)c2nc3ccccc3s2)CC1` (stereo not shown) (as salt: oxalate) [Example 147, 2-[(1-methylpiperidin-4-yloxy)(3-pyrazol-1-ylphenyl)methyl]benzothiazole] came in with a melting point of 89 °C.

`CN1CCC(OC(c2cc(F)cc(F)c2)c2nc3ccccc3s2)CC1` (stereo not shown) (as salt: oxalate) [Example 15, 2-[(3,5-difluorophenyl)(1-methyl-piperidin-4-yloxy)methyl]benzothiazole] had a melting point of 165 °C.

In turn, `CN1CCC(OC(c2cccc(C(=O)N(C)c3ccccc3)c2)c2nc3ccccc3s2)CC1` (stereo not shown) (as salt: oxalate) [Example 223, 3-[benzothiazol-2-yl(1-methylpiperidin-4-yloxy)methyl]-N-methyl-N-phenylbenzamide] showed a melting point of 125 °C.

`CN1CCC(OC(c2nc3ccccc3o2)c2cc(OC(F)(F)F)ccc2F)CC1` (stereo not shown) (as salt: oxalate) [Example 525, 2-[(2-fluoro-5-trifluoromethoxyphenyl)(1-methylpiperidin-4-yloxy)methyl]benzoxazole] came in with a melting point of 103 °C.

With `CN1CCC(OC(c2cccc(N3CCC(O)CC3)c2)c2nc3ccccc3s2)CC1` (stereo not shown) (as salt: oxalate) [Example 411, 1-{3-[benzothiazol-2-yl(1-methylpiperidin-4-yloxy)methyl]phenyl}piperidin-4-ol], the melting point came to 110 °C.

As to `CN1CCC(OC(c2cccc(C(=O)N(C)Cc3ccccc3)c2)c2nc3ccccc3s2)CC1` (stereo not shown) (as salt: oxalate) [Example 219, 3-[benzothiazol-2-yl(1-methylpiperidin-4-yloxy)methyl]-N-benzyl-N-methylbenzamide], the melting point was 103 °C.

In turn, `CC(C)Oc1cccc(C(OC2CCN(C)CC2)c2nc3ccccc3s2)c1` (stereo not shown) (as salt: oxalate) [Example 55, 2-[(3-isopropoxyphenyl)(1-methylpiperidin-4-yloxy)methyl]benzothiazole] yielded a melting point of 68 °C.

The compound `CN1CCC(OC(c2cccc(OCCCCCNCC(=O)OC(C)(C)C)c2)c2nc3ccccc3s2)CC1` (stereo not shown) (as salt: oxalate) [Example 375, (5-{3-[benzothiazol-2-yl(1-methylpiperidin-4-yloxy)methyl]phenoxy}pentylamino)acetic acid tert-butyl ester] returned a melting point of 99 °C.

The compound `COc1cccc(C(NC2CCN(C)CC2)c2nc3ccccc3s2)c1` (stereo not shown) (as salt: oxalate) [Example 25, [benzothiazol-2-yl(3-methoxyphenyl)methyl](1-methylpiperidin-4-yl)amine] yielded a melting point of 160 °C.

In the case of `CN1CCC(OC(c2cccc(OCCCCN3CCCCC3)c2)c2nc3ccccc3[nH]2)CC1` (stereo not shown) (as salt: oxalate) [Example 333, 2-{(1-methylpiperidin-4-yloxy)[3-(4-piperidin-1-yl-butoxy)phenyl]methyl}-1H-benzimidazole], the melting point is 130 °C.
